From US20160168541A1, “TRANSDUCIBLE MATERIALS FOR CELL REPROGRAMMING” (VIVOSCRIPT, INC., priority 2013, published 2016)
“Also recorded” adds a separate entry of the source.

What was measured:
Assay type in all cases: cell-based
[1] = tested on: Oct4 target genes (Oct4, Sox2, Nanog, Smad3 and Smad4); test: RT-qPCR of Oct4 target genes in HepG2 cells treated with transducible materials; settings: serum-free medium, 6 hours, normalized by GAPDH, sGFP-treated sample set as 1.00
Description: FIG. 2. Comparison of sGFP-Oct4(mNES) and sGFP-Oct4 protein in regulating the expression of downstream genes. HepG2 cells were treated with sGFP, sGFP-Oct4 or sGFP-Oct4(mNES) in serum-free medium for 6 hours. RNA was isolated and RT-qPCR was performed. The expression of each gene was normalized by the expression level of GAPDH. The relative expression level of each gene in the control condition (sGFP-treated sample) was set as 1.00.
HepG2 cells were treated with transducible materials comprising isolated polypeptide of sGFP, sGFP-Oct4-11R or sGFP-Oct4(mNES)-11R in serum-free medium for 6 hours. RNA was extracted from each sample using RNeasy Micro Kit from Qiagen and cDNA was synthesized through reverse transcription reaction. RT-qPCRs of five Oct4 target genes (Oct4, Sox2, Nanog, Smad3 and Smad4 were performed using a pair of primers specific to each target gene and a hydrolysis probe from Roche Universal ProbeLibrary on LightCycler 480 II. The expression of each gene was normalized by the expression level of GAPDH. The relative expression level of each gene in the control condition (sGFP-treated sample) was set as 1.00.

adult human fibroblasts [2] = test: Live fluorescent imaging of uptake and nuclear occupancy of sGFP polypeptides in fibroblasts; settings: 10 μg/ml
Description: FIG. 5. Live fluorescent imaging of human fibroblasts after culturing in 10 μg/ml of first generation sGFP-MyoD-11R.
In the first generation of transducible materials, a sGFP transduction domain and a poly-arginine (11R) were fused to the N-terminus and C-terminus of MyoD through a linker (SEQ ID NO: 99) respectively to generate sGFP-MyoD-11R (SEQ ID NO: 156). […] The nuclear entry of sGFP-MyoD-11R was increased by using 100 μg/ml sGFP-MyoD-11R and electroporation, which successful reprogrammed very low percentage (around 10%) of FBs to MyoD+ myoblasts.
The second generation of transducible materials, a strong classic nuclear localization sequence (cNLS), the SV40 T antigen NLS, was added in-between sGFP and MyoD-11R (SEQ ID NO: 157 and FIG. 3).
Leptomycin B (leptoB), a nuclear export blocker, was added at 5 nM to adult fibroblasts to enhance nuclear occupancy of sGFP-NLS-MyoD-11R. […] Higher concentrations of leptoB might have off-target effects, which limits its use in enhancing nuclear retention of specific polypeptides.
In the third generation of transducible materials, the NES of MyoD was mutated to generate sGFP-NLS-MyoD(mNES)-11R (SEQ ID NO: 127 and FIG. 3) to further improve their nuclear occupancy and transcription efficiency. […] These SCs were positive for Myf5 (>90% of SCs) at 22 days after transduction (FIG. 8B). Also, these SCs could be induced to differentiate to myoblasts with downregulation of Pax7 and upregulation of MyoD via a published myogenic protocol (Cosgrove et al, Rejuvenation of the muscle stem cell population restores strength to injured aged muscles, Nat Med., 20:255-64 (2014)). […] Thus, by using sGFP-NLS-MyoD(mNES)-11R, efficient fibroblasts conversion to SMPCs can be achieved in a controlled fashion. The risk of extensive durations of MyoD activation is completely avoided. Most myogenic analysis was performed at >2 weeks after polypeptide transduction to avoid confounding issues from added exogenous polypeptides. In summary, adult fibroblast can be successfully reprogrammed to SCs using sGFP-NLS-MyoD(mNES)-11R with defined kinetics (2-day nuclear occupancy and 2-3 week peptide lifespan).

adult human fibroblasts [3] = test: Reprogramming of fibroblasts to skeletal muscle progenitor cells (satellite cells, myoblasts)
Description: FIG. 4. Schematic of experimental protocol to convert fibroblasts to myoblasts with transducible materials derived from MyoD.
In this example, three versions of transducible materials derived from MyoD (the master myogenic transcription factor) were generated and their effects on reprogramming fibroblast cells into skeletal muscle progenitor cells (SMPCs) were compared.
Most myogenic analysis was performed at >2 weeks after polypeptide transduction to avoid confounding issues from added exogenous polypeptides.

Substance | expression of Oct4 target genes [1] | time the polypeptide stays in the nucleus (adult human fibroblasts [2]; leptomycin B 5 nM) [h] | nuclear occupancy (GFP signal in nuclei) with leptomycin B (adult human fibroblasts [2]; leptomycin B 5 nM, third generation at 30 min, 24 hours and 48 hours) | nuclear occupancy (localization of GFP signal) (adult human fibroblasts [2]; no leptomycin B) | change of nuclear occupancy with time (adult human fibroblasts [2]; no leptomycin B, 24 hours) | reprogramming of fibroblasts to SMPCs (adult human fibroblasts [3]; 10 μg/ml, no leptomycin B) | reprogramming efficiency of adult fibroblasts to SMPCs (adult human fibroblasts [3]; continuous presence of leptomycin B 5 nM)
sGFP-Oct4-11R: Fusion polypeptide of supercharged GFP, Oct4 and 11R, SEQ ID NO: 155, unmutated NES | does not increase |  |  |  |  |  | 
sGFP-NLS-MyoD-11R: Second generation: SV40 T antigen NLS added between sGFP and MyoD-11R, SEQ ID NO: 157 |  | > 24 | slightly improves the nuclear occupancy | more transducible materials were observed in nuclei; also recorded: GFP signal were observed in the nuclei | significantly decreased within 24 hours; also recorded: GFP signal in the nuclei decreased after 24 hours | low and inconsistent | around 5%
